Drawing on publication PMC12127288, “Engineering of antimicrobial peptide Brevinin-1pl: arginine, lysine, and histidine substitutions enhance antimicrobial-anticancer efficacy with reduced cytotoxicity” (Frontiers in Chemistry, 2025), this text covers MBC and MIC for two compounds.

By MIC is commonly meant the lowest concentration that inhibits growth of the organism. Higher therefore signals a less susceptible organism.

Assay [1] concerns E. faecium 12697. The format is cell-based, Enterococcus faecalis NCTC 12697 (E. faecium 12697). To be noted: 12697, 18 h. The procedure:
(§1) The minimal inhibitory concentration (MIC) and minimal bactericidal concentration (MBC) values of the peptides were determined by established protocols to evaluate their antimicrobial activities ([Lin et al., 2021]). The MIC value was the lowest concentration of a peptide that inhibits visible bacterial growth after incubating 18 h (CLSI standard). Once the MIC values were determined, an aliquot from the bacterial culture exposed to the peptide at or above its MIC value was inoculated on a Mueller Hinton agar (MHA) and was incubated at 37 for 18 h (CLSI standard). The MBC value was the lowest concentration of a peptide that kills 99.9% of bacteria. Antimicrobial activities of synthetic peptides were assessed by determination of MIC and MBC values using eight kinds of bacteria and yeast: Gram-positive bacteria, Staphylococcus aureus ATCC 6538 (S. aureus 6538), Methicillin-resistant Staphylococcus aureus NCTC 12493 (MRSA 12493), and Enterococcus faecalis NCTC 12697 (E. faecium 12697); Gram-negative bacteria, Escherichia coli ATCC 8739 (E. coli 8739), Pseudomonas aeruginosa ATCC CRM 9027 (P. aeruginosa 9027), Klebsiella pneumoniae ATCC 43816 (K. pneumoniae 43816), and Acinetobacter baumannii BAA 747 (A. baumannii 747); and pathogenic yeast, Candida albicans ATCC 10231 (C. albicans 10231).

The test system of assay [2] is Acinetobacter baumannii BAA 747. The format is cell-based. To be noted: BAA 747, 18 h. The procedure: as §1
For assay [3], the system named is Escherichia coli ATCC 8739. In kind it is cell-based. Particulars: ATCC 8739, 18 h. The procedure:
as §1

For assay [4], the system named is Pseudomonas aeruginosa ATCC CRM 9027. The format is cell-based. To be noted: ATCC CRM 9027, 18 h. The procedure:
as §1

Assay [5] concerns Candida albicans ATCC 10231. The format is cell-based. To be noted: ATCC 10231, 18 h. The procedure:
as §1

In assay [6] the test system is Methicillin-resistant Staphylococcus aureus NCTC 12493. In kind it is cell-based. To be noted: NCTC 12493, 18 h. The procedure:
as §1

Assay [7] has as its system Klebsiella pneumoniae ATCC 43816. The format is cell-based. Particulars: ATCC 43816, 18 h. The procedure:
as §1

In assay [8] the test system is Staphylococcus aureus ATCC 6538. In kind it is cell-based. To be noted: ATCC 6538, 18 h. The procedure: as §1

Values after ≈ are worked out from the molar mass of the structure shown. Positions of bridges follow the written chain, without caps; N, C: chain ends. Residues, ends and D or L forms follow the SMILES beside them.

Turning to `CC[C@H](C)[C@H](NC(=O)[C@H](CCCCN)NC(=O)[C@H](CCCCN)NC(=O)[C@H](CC(C)C)NC(=O)[C@@H](NC(=O)[C@H](CCCCN)NC(=O)[C@H](C)NC(=O)[C@H](C)NC(=O)[C@@H](NC(=O)CNC(=O)[C@H](C)NC(=O)[C@@H](NC(=O)[C@@H](NC(=O)[C@@H]1CCCN1C(=O)[C@H](Cc1ccccc1)NC(=O)[C@@H](N)Cc1ccccc1)[C@@H](C)CC)C(C)C)C(C)C)C(C)C)C(=O)N[C@@H](Cc1ccccc1)C(=O)N[C@H]1CSSC[C@@H](C(=O)O)NC(=O)[C@H](CCCNC(=N)N)NC(=O)[C@H](CCCNC(=N)N)NC(=O)[C@H](CO)NC(=O)[C@H]([C@@H](C)CC)NC(=O)[C@H]([C@@H](C)O)NC1=O` [brevinin-1pl-2R] (H-FFPIVAGVAAKVLKKIFCTISRRC-OH; disulfide 18-24), the MBC in assay [1] was 4 µM (≈ 10.7 µg/mL); in assay [2], 16 µM (≈ 42.7 µg/mL); in assay [3] it was 4 µM (≈ 10.7 µg/mL); in assay [4] it was 8 µM (≈ 21.3 µg/mL); in assay [5], more than 128 µM; in assay [6] it was 2 µM (≈ 5.33 µg/mL). Further, the MBC in assay [7] turned out to be 8 µM (≈ 21.3 µg/mL); in assay [8], 2 µM (≈ 5.33 µg/mL). Moreover, the minimum inhibitory concentration (MIC) in assay [1] is 4 µM (≈ 10.7 µg/mL); in assay [2], 8 µM (≈ 21.3 µg/mL); in assay [3], 4 µM (≈ 10.7 µg/mL); in assay [4], 8 µM (≈ 21.3 µg/mL); in assay [5], more than 128 µM; in assay [6], 2 µM (≈ 5.33 µg/mL). Besides, the minimum inhibitory concentration (MIC) in assay [7] is 8 µM (≈ 21.3 µg/mL); in assay [8], 2 µM (≈ 5.33 µg/mL).

For the compound `CC[C@H](C)[C@H](NC(=O)[C@H](CCCNC(=N)N)NC(=O)[C@H](CCCNC(=N)N)NC(=O)[C@H](CC(C)C)NC(=O)[C@@H](NC(=O)[C@H](CCCNC(=N)N)NC(=O)[C@H](C)NC(=O)[C@H](C)NC(=O)[C@@H](NC(=O)CNC(=O)[C@H](C)NC(=O)[C@@H](NC(=O)[C@@H](NC(=O)[C@@H]1CCCN1C(=O)[C@H](Cc1ccccc1)NC(=O)[C@@H](N)Cc1ccccc1)[C@@H](C)CC)C(C)C)C(C)C)C(C)C)C(=O)N[C@@H](Cc1ccccc1)C(=O)N[C@H]1CSSC[C@@H](C(=O)O)NC(=O)[C@H](CCCNC(=N)N)NC(=O)[C@H](CCCNC(=N)N)NC(=O)[C@H](CO)NC(=O)[C@H]([C@@H](C)CC)NC(=O)[C@H]([C@@H](C)O)NC1=O` [brevinin-1pl-5R] (H-FFPIVAGVAARVLRRIFCTISRRC-OH; disulfide 18-24), the MBC is 2 µM (≈ 5.5 µg/mL) in assay [1]; 32 µM (≈ 88 µg/mL) in assay [2]; 8 µM (≈ 22 µg/mL) in assay [3]; 16 µM (≈ 44 µg/mL) in assay [4]; more than 128 µM in assay [5]; 2 µM (≈ 5.5 µg/mL) in assay [6]. In addition, the MBC in assay [7] was determined as 16 µM (≈ 44 µg/mL); in assay [8] it was 2 µM (≈ 5.5 µg/mL). The minimum inhibitory concentration (MIC) in assay [1] was 2 µM (≈ 5.5 µg/mL); in assay [2], 16 µM (≈ 44 µg/mL); in assay [3], 8 µM (≈ 22 µg/mL); in assay [4], 16 µM (≈ 44 µg/mL); in assay [5], more than 128 µM; in assay [6] it was 2 µM (≈ 5.5 µg/mL). Further, the MIC in assay [7] came out at 16 µM (≈ 44 µg/mL); in assay [8], 2 µM (≈ 5.5 µg/mL).
